{
  "source": "patent US12077503B2",
  "about": "“Substituted cyclic amides and their use as herbicides” (FMC CORPORATION, priority 2015, dated 2024)",
  "experiment_in_all_cases": "Test C preemergence",
  "type_in_all_cases": "in vivo",
  "key": {"[1]": {"tested_on": "morningglory (Ipomoea coccinea)", "conditions": "for Plant response rating, Morningglory: scale 0 to 100, 0 no effect, 100 complete control", "how_it_was_run": "(§1)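 Assessment: visual, 13–15 d after treatment, 0 (no effect) to 100 (complete control) relative to controls. Treatment: preemergence to seeds in loam-sand soil, or postemergence to 1- to 4-leaf plants in peat-based medium. Formulation: non-phytotoxic solvent mixture with surfactant.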"}, "[2]": {"tested_on": "foxtail, giant (giant foxtail, Setaria faberii)", "conditions": "for Plant response rating, Foxtail, Giant: scale 0 to 100, 0 no effect, 100 complete control", "how_it_was_run": "as §1"}, "[3]": {"tested_on": "barnyardgrass (Echinochloa crus-galli)", "conditions": "for Plant response rating, Barnyardgrass: scale 0 to 100, 0 no effect, 100 complete control", "how_it_was_run": "as §1"}, "[4]": {"tested_on": "wheat (winter wheat, Triticum aestivum)", "conditions": "for Plant response rating, Wheat: scale 0 to 100, 0 no effect, 100 complete control", "how_it_was_run": "as §1"}, "[5]": {"tested_on": "waterhemp (common waterhemp, Amaranthus rudis)", "conditions": "for Plant response rating, Waterhemp: scale 0 to 100, 0 no effect, 100 complete control", "how_it_was_run": "as §1"}, "[6]": {"tested_on": "lambsquarters (Chenopodium album)", "conditions": "for Plant response rating, Lambsquarters: scale 0 to 100, 0 no effect, 100 complete control", "how_it_was_run": "as §1"}, "[7]": {"tested_on": "velvetleaf (Abutilon theophrasti)", "conditions": "for Plant response rating, Velvetleaf: scale 0 to 100, 0 no effect, 100 complete control", "how_it_was_run": "as §1"}, "[8]": {"tested_on": "ragweed (common ragweed, Ambrosia elatior)", "conditions": "for Plant response rating, Ragweed: scale 0 to 100, 0 no effect, 100 complete control", "how_it_was_run": "as §1"}, "[9]": {"tested_on": "Galium (catchweed bedstraw, Galium aparine)", "conditions": "for Plant response rating, Galium: scale 0 to 100, 0 no effect, 100 complete control", "how_it_was_run": "as §1"}, "[10]": {"tested_on": "blackgrass (Alopecurus myosuroides)", "conditions": "for Plant response rating, Blackgrass: scale 0 to 100, 0 no effect, 100 complete control", "how_it_was_run": "as §1"}, "soybean (Glycine max)": {"tested_on": "soybean (Glycine max)", "conditions": "for Plant response rating, Soybean: scale 0 to 100, 0 no effect, 100 complete control", "how_it_was_run": "as §1"}, "corn (Zea mays)": {"tested_on": "corn (Zea mays)", "conditions": "for Plant response rating, Corn: scale 0 to 100, 0 no effect, 100 complete control", "how_it_was_run": "as §1"}, "[11]": {"tested_on": "ryegrass, Italian (Italian ryegrass, Lolium multiflorum)", "conditions": "for Plant response rating, Ryegrass, Italian: scale 0 to 100, 0 no effect, 100 complete control", "how_it_was_run": "as §1"}, "[12]": {"tested_on": "pigweed (Amaranthus retroflexus)", "conditions": "for Plant response rating, Pigweed: scale 0 to 100, 0 no effect, 100 complete control", "how_it_was_run": "as §1"}, "[13]": {"tested_on": "johnsongrass (Sorghum halepense)", "conditions": "for Plant response rating, Johnsongrass: scale 0 to 100, 0 no effect, 100 complete control", "how_it_was_run": "as §1"}, "[14]": {"tested_on": "crabgrass, large (large crabgrass, Digitaria sanguinalis)", "conditions": "for Plant response rating, Crabgrass, Large: scale 0 to 100, 0 no effect, 100 complete control", "how_it_was_run": "as §1"}, "[15]": {"tested_on": "nutsedge, yellow (yellow nutsedge, Cyperus esculentus)", "conditions": "for Plant response rating, Nutsedge, Yellow: scale 0 to 100, 0 no effect, 100 complete control", "how_it_was_run": "as §1"}, "[16]": {"tested_on": "oilseed rape (Brassica napus)", "conditions": "for Plant response rating, Oilseed Rape: scale 0 to 100, 0 no effect, 100 complete control", "how_it_was_run": "as §1"}, "[17]": {"conditions": "31 g ai/ha, 0 is no effect, 100 is complete control"}},
  "data": [
    {"smiles": "CN1CC(c2ccc(C(F)(F)F)cc2)C(C(=O)Nc2ccccc2S(C)(=O)=O)C1=O", "note": "(stereo not drawn) [Compound 624]", "values": [
      {"measurement": "Plant response rating (scale of 0 to 100), Morningglory", "setting": "[1]; [17]", "result": 0},
      {"measurement": "Plant response rating, Morningglory", "setting": "[1]; 62 g ai/ha", "result": 0},
      {"measurement": "Plant response rating, Morningglory", "setting": "[1]; 125 g ai/ha", "result": 30},
      {"measurement": "Plant response rating, Morningglory", "setting": "[1]; 250 g ai/ha", "result": 35},
      {"measurement": "Plant response rating (scale of 0 to 100), Foxtail, Giant", "setting": "[2]; [17]", "result": 85},
      {"measurement": "Plant response rating, Foxtail, Giant", "setting": "[2]; 62 g ai/ha", "result": 90},
      {"measurement": "Plant response rating, Foxtail, Giant", "setting": "[2]; 125 g ai/ha", "result": 90},
      {"measurement": "Plant response rating, Foxtail, Giant", "setting": "[2]; 250 g ai/ha", "result": 95},
      {"measurement": "Plant response rating (scale of 0 to 100), Barnyardgrass", "setting": "[3]; [17]", "result": 75},
      {"measurement": "Plant response rating, Barnyardgrass", "setting": "[3]; 62 g ai/ha", "result": 90},
      {"measurement": "Plant response rating, Barnyardgrass", "setting": "[3]; 125 g ai/ha", "result": 95},
      {"measurement": "Plant response rating, Barnyardgrass", "setting": "[3]; 250 g ai/ha", "result": 95},
      {"measurement": "Plant response rating (scale of 0 to 100), Wheat", "setting": "[4]; [17]", "result": 0},
      {"measurement": "Plant response rating, Wheat", "setting": "[4]; 62 g ai/ha", "result": 35},
      {"measurement": "Plant response rating, Wheat", "setting": "[4]; 125 g ai/ha", "result": 45},
      {"measurement": "Plant response rating, Wheat", "setting": "[4]; 250 g ai/ha", "result": 80},
      {"measurement": "Plant response rating (scale of 0 to 100), Waterhemp", "setting": "[5]; [17]", "result": 85},
      {"measurement": "Plant response rating, Waterhemp", "setting": "[5]; 62 g ai/ha", "result": 90},
      {"measurement": "Plant response rating, Waterhemp", "setting": "[5]; 125 g ai/ha", "result": 90},
      {"measurement": "Plant response rating, Waterhemp", "setting": "[5]; 250 g ai/ha", "result": 100},
      {"measurement": "Plant response rating (scale of 0 to 100), Lambsquarters", "setting": "[6]; [17]", "result": 35},
      {"measurement": "Plant response rating, Lambsquarters", "setting": "[6]; 62 g ai/ha", "result": 40},
      {"measurement": "Plant response rating, Lambsquarters", "setting": "[6]; 125 g ai/ha", "result": 70},
      {"measurement": "Plant response rating, Lambsquarters", "setting": "[6]; 250 g ai/ha", "result": 60},
      {"measurement": "Plant response rating (scale of 0 to 100), Velvetleaf", "setting": "[7]; [17]", "result": 10},
      {"measurement": "Plant response rating, Velvetleaf", "setting": "[7]; 62 g ai/ha", "result": 30},
      {"measurement": "Plant response rating, Velvetleaf", "setting": "[7]; 125 g ai/ha", "result": 45},
      {"measurement": "Plant response rating, Velvetleaf", "setting": "[7]; 250 g ai/ha", "result": 65},
      {"measurement": "Plant response rating (scale of 0 to 100), Ragweed", "setting": "[8]; [17]", "result": 25},
      {"measurement": "Plant response rating, Ragweed", "setting": "[8]; 62 g ai/ha", "result": 55},
      {"measurement": "Plant response rating, Ragweed", "setting": "[8]; 125 g ai/ha", "result": 75},
      {"measurement": "Plant response rating, Ragweed", "setting": "[8]; 250 g ai/ha", "result": 80},
      {"measurement": "Plant response rating (scale of 0 to 100), Galium", "setting": "[9]; [17]", "result": 50},
      {"measurement": "Plant response rating, Galium", "setting": "[9]; 62 g ai/ha", "result": 85},
      {"measurement": "Plant response rating, Galium", "setting": "[9]; 125 g ai/ha", "result": 80},
      {"measurement": "Plant response rating, Galium", "setting": "[9]; 250 g ai/ha", "result": 85},
      {"measurement": "Plant response rating (scale of 0 to 100), Blackgrass", "setting": "[10]; [17]", "result": 50},
      {"measurement": "Plant response rating, Blackgrass", "setting": "[10]; 62 g ai/ha", "result": 70},
      {"measurement": "Plant response rating, Blackgrass", "setting": "[10]; 125 g ai/ha", "result": 90},
      {"measurement": "Plant response rating, Blackgrass", "setting": "[10]; 250 g ai/ha", "result": 90},
      {"measurement": "Plant response rating (scale of 0 to 100), Soybean", "setting": "soybean (Glycine max); [17]", "result": 0},
      {"measurement": "Plant response rating, Soybean", "setting": "soybean (Glycine max); 62 g ai/ha", "result": 0},
      {"measurement": "Plant response rating, Soybean", "setting": "soybean (Glycine max); 125 g ai/ha", "result": 15},
      {"measurement": "Plant response rating, Soybean", "setting": "soybean (Glycine max); 250 g ai/ha", "result": 40},
      {"measurement": "Plant response rating (scale of 0 to 100), Corn", "setting": "corn (Zea mays); [17]", "result": 0},
      {"measurement": "Plant response rating, Corn", "setting": "corn (Zea mays); 62 g ai/ha", "result": 0},
      {"measurement": "Plant response rating, Corn", "setting": "corn (Zea mays); 125 g ai/ha", "result": 5},
      {"measurement": "Plant response rating, Corn", "setting": "corn (Zea mays); 250 g ai/ha", "result": 65},
      {"measurement": "Plant response rating (scale of 0 to 100), Ryegrass, Italian", "setting": "[11]; [17]", "result": 10},
      {"measurement": "Plant response rating, Ryegrass, Italian", "setting": "[11]; 62 g ai/ha", "result": 40},
      {"measurement": "Plant response rating, Ryegrass, Italian", "setting": "[11]; 125 g ai/ha", "result": 30},
      {"measurement": "Plant response rating, Ryegrass, Italian", "setting": "[11]; 250 g ai/ha", "result": 30},
      {"measurement": "Plant response rating (scale of 0 to 100), Pigweed", "setting": "[12]; [17]", "result": 80},
      {"measurement": "Plant response rating, Pigweed", "setting": "[12]; 62 g ai/ha", "result": 85},
      {"measurement": "Plant response rating, Pigweed", "setting": "[12]; 125 g ai/ha", "result": 85},
      {"measurement": "Plant response rating, Pigweed", "setting": "[12]; 250 g ai/ha", "result": 90},
      {"measurement": "Plant response rating (scale of 0 to 100), Johnsongrass", "setting": "[13]; [17]", "result": 0},
      {"measurement": "Plant response rating, Johnsongrass", "setting": "[13]; 62 g ai/ha", "result": 0},
      {"measurement": "Plant response rating, Johnsongrass", "setting": "[13]; 125 g ai/ha", "result": 0},
      {"measurement": "Plant response rating, Johnsongrass", "setting": "[13]; 250 g ai/ha", "result": 25},
      {"measurement": "Plant response rating (scale of 0 to 100), Crabgrass, Large", "setting": "[14]; [17]", "result": 95},
      {"measurement": "Plant response rating, Crabgrass, Large", "setting": "[14]; 62 g ai/ha", "result": 100},
      {"measurement": "Plant response rating, Crabgrass, Large", "setting": "[14]; 125 g ai/ha", "result": 100},
      {"measurement": "Plant response rating, Crabgrass, Large", "setting": "[14]; 250 g ai/ha", "result": 98},
      {"measurement": "Plant response rating (scale of 0 to 100), Nutsedge, Yellow", "setting": "[15]; [17]", "result": 0},
      {"measurement": "Plant response rating, Nutsedge, Yellow", "setting": "[15]; 62 g ai/ha", "result": 0},
      {"measurement": "Plant response rating, Nutsedge, Yellow", "setting": "[15]; 125 g ai/ha", "result": 25},
      {"measurement": "Plant response rating, Nutsedge, Yellow", "setting": "[15]; 250 g ai/ha", "result": 50},
      {"measurement": "Plant response rating (scale of 0 to 100), Oilseed Rape", "setting": "[16]; [17]", "result": 75},
      {"measurement": "Plant response rating, Oilseed Rape", "setting": "[16]; 62 g ai/ha", "result": 80},
      {"measurement": "Plant response rating, Oilseed Rape", "setting": "[16]; 125 g ai/ha", "result": 85},
      {"measurement": "Plant response rating, Oilseed Rape", "setting": "[16]; 250 g ai/ha", "result": 85}
    ]}
  ]
}
